Assay results published in patent US20250195536A1, “BICYCLOOCTANE KRAS INHIBITORS” (Incyte Corporation, priority 2023, published 2025).

Tests used:
[1] = Caco2 assay (permeability, Papp A-B); assay type: in vitro ADME; conditions: human, Caco-2, absorptive direction (A-B), 50 μM test compound, 4% BSA in receiver
Method in brief: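 Caco-2 monolayers, 22-25 days on Transwells, TEER 300 Ω·cm^2, dosed apically with 50 μM compound in HBSS; basolateral HBSS with 4% BSA. 120 min at 37 °C, samples quantified by LCMS; Papp (A-B) from receiver-side cumulative flux slope, donor volume, surface area and initial donor amount.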

KRAS G12V = KRAS G12V (Homo sapiens, UniProt P01116, G12V); assay: GDP-GTP exchange assay (KRAS G12V); assay type: biochemical; conditions: bodipy-GDP/GppNHp exchange with SOS1; 3 h incubation after GppNHp-SOS1;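 note: one dagger IC50 up to 100 nM and two daggers above 100 nM up to 1 μM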
Method in brief: (§1)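 Bodipy-GDP-loaded KRAS (2.5 nM final) was pre-incubated 4 h at r.t. with inhibitor in Hepes pH 7.5 buffer with MgCl2, then exchange started with GppNHp (500 μM) and SOS1 (150 nM) final. Fluorescence (ex 485/em 520 nm) read after 2 h for G12D, 3 h for G12V; IC50 from four-parameter logistic fit.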

KRAS G12D = KRAS G12D (Homo sapiens, UniProt P01116, G12D); assay: GDP-GTP exchange assay (KRAS G12D); assay type: biochemical; conditions: bodipy-GDP/GppNHp exchange with SOS1; 4 h pre-incubation, 2 h reaction;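 note: one dagger IC50 up to 100 nM and two daggers above 100 nM up to 1 μM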
Method in brief: as §1

KRAS G12V, sequence (P01116 1-188 isoform P01116-2 G12V): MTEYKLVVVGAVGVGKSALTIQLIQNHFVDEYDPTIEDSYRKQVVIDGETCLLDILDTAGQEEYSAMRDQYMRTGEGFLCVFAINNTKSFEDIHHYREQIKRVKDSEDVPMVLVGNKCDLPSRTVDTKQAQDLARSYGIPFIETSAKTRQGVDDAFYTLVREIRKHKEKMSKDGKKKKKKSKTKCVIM
KRAS G12D, sequence (P01116 1-188 isoform P01116-2 G12D): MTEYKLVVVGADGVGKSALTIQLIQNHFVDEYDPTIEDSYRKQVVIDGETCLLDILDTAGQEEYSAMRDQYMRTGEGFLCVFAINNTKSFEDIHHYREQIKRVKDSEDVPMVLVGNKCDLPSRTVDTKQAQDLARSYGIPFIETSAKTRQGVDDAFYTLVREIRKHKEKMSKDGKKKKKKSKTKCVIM

| Structure (SMILES) | Papp A→B at 120 min, 50 μM [1] | G12V_exchange (KRAS_G12V exchange assay IC50) (KRAS G12V) | G12D_exchange (KRAS_G12D exchange assay IC50) (KRAS G12D) |
| --- | --- | --- | --- |
| Cc1nc2c(F)c(-c3cccc(Cl)c3Cl)c(CCC#N)cc2c2c1cc([C@H]1[C@H]3C[C@H](CN(c4nc(C#N)cs4)C3)N1C(=O)C1CC1)n2[C@H]1[C@H]2CN[C@@H]1C2 (atropisomer, axis not shown; (Ra)) [Example 96, 2-((1S,5R,7R)-7-((Ra)-1-((1R,4R,5S)-2-azabicyclo[2.1.1]hexan-5-yl)-8-(2-cyanoethyl)-7-(2,3-dichlorophenyl)-6-fluoro-4-methyl-1H-pyrrolo[3,2-c]quinolin-2-yl)-6-(cyclopropanecarbonyl)-3,6-diazabicyclo[3.2.1]octan-3-yl)thiazole-4-carbonitrile] | ≤ 0.5 ×10⁻⁶ cm/s | † | † |
| Cc1sc(N2C[C@@H]3C[C@H](C2)N(C(=O)C2CC2)[C@H]3c2cc3c(C)nc4c(F)c(-c5cccc(Cl)c5Cl)c(CCC#N)cc4c3n2[C@H]2[C@H]3CN[C@@H]2C3)nc1C#N (atropisomer, axis not shown; (Ra)) [Example 97, 2-((1S,5R,7R)-7-((Ra)-1-((1R,4R,5S)-2-azabicyclo[2.1.1]hexan-5-yl)-8-(2-cyanoethyl)-7-(2,3-dichlorophenyl)-6-fluoro-4-methyl-1H-pyrrolo[3,2-c]quinolin-2-yl)-6-(cyclopropanecarbonyl)-3,6-diazabicyclo[3.2.1]octan-3-yl)-5-methylthiazole-4-carbonitrile] | ≤ 0.5 ×10⁻⁶ cm/s | † | † |
| Cc1nc(N2C[C@@H]3C[C@H](C2)N(C(=O)C2CC2)[C@H]3c2cc3c(C)nc4c(F)c(-c5cccc(Cl)c5Cl)c(CCC#N)cc4c3n2[C@H]2[C@H]3CN[C@@H]2C3)sc1C#N (atropisomer, axis not shown; (Ra)) [Example 98, 2-((1S,5R,7R)-7-((Ra)-1-((1R,4R,5S)-2-azabicyclo[2.1.1]hexan-5-yl)-8-(2-cyanoethyl)-7-(2,3-dichlorophenyl)-6-fluoro-4-methyl-1H-pyrrolo[3,2-c]quinolin-2-yl)-6-(cyclopropanecarbonyl)-3,6-diazabicyclo[3.2.1]octan-3-yl)-4-methylthiazole-5-carbonitrile] | ≤ 0.5 ×10⁻⁶ cm/s | † | † |
| CCc1cnc(N2C[C@@H]3C[C@H](C2)N(C(=O)C2CC2)[C@H]3c2cc3c(C)nc4c(F)c(-c5cccc(Cl)c5Cl)c(CCC#N)cc4c3n2[C@H]2[C@H]3CN[C@@H]2C3)s1 (atropisomer, axis not shown; (Ra)) [Example 99, 3-((Ra)-1-((1R,4R,5S)-2-azabicyclo[2.1.1]hexan-5-yl)-2-((1S,5R,7R)-6-(cyclopropanecarbonyl)-3-(5-ethylthiazol-2-yl)-3,6-diazabicyclo[3.2.1]octan-7-yl)-7-(2,3-dichlorophenyl)-6-fluoro-4-methyl-1H-pyrrolo[3,2-c]quinolin-8-yl)propanenitrile] | ≤ 0.5 ×10⁻⁶ cm/s | † | † |
| Cc1nc2c(F)c(-c3cccc(Cl)c3Cl)c(CCC#N)cc2c2c1cc([C@H]1[C@H]3C[C@H](CN(c4ccon4)C3)N1C(=O)C1CC1)n2[C@H]1[C@H]2CN[C@@H]1C2 (atropisomer, axis not shown; (Ra)) [Example 100, 3-((Ra)-1-((1R,4R,5S)-2-azabicyclo[2.1.1]hexan-5-yl)-2-((1S,5R,7R)-6-(cyclopropanecarbonyl)-3-(isoxazol-3-yl)-3,6-diazabicyclo[3.2.1]octan-7-yl)-7-(2,3-dichlorophenyl)-6-fluoro-4-methyl-1H-pyrrolo[3,2-c]quinolin-8-yl)propanenitrile] | ≤ 0.5 ×10⁻⁶ cm/s | † | † |
| Cc1sc(N2C[C@@H]3C[C@H](C2)N(C(=O)C2CC2)[C@H]3c2cc3c(C)nc4c(F)c(-c5cccc(Cl)c5Cl)c(CCC#N)cc4c3n2[C@H]2[C@H]3CN[C@@H]2C3)nc1C(C)(F)F (atropisomer, axis not shown; (Ra)) [Example 103, 3-((Ra)-1-((1R,4R,5S)-2-azabicyclo[2.1.1]hexan-5-yl)-2-((1S,5R,7R)-6-(cyclopropanecarbonyl)-3-(4-(1,1-difluoroethyl)-5-methylthiazol-2-yl)-3,6-diazabicyclo[3.2.1]octan-7-yl)-7-(2,3-dichlorophenyl)-6-fluoro-4-methyl-1H-pyrrolo[3,2-c]quinolin-8-yl)propanenitrile] | ≤ 0.5 ×10⁻⁶ cm/s | † | † |
| Cc1nc2c(F)c(-c3cccc(Cl)c3Cl)c(CCC#N)cc2c2c1cc([C@H]1[C@H]3C[C@H](CN(c4cnsc4)C3)N1C(=O)C1CC1)n2[C@H]1[C@H]2CN[C@@H]1C2 (atropisomer, axis not shown; (Ra)) [Example 104, 3-((Ra)-1-((1R,4R,5S)-2-azabicyclo[2.1.1]hexan-5-yl)-2-((1S,5R,7R)-6-(cyclopropanecarbonyl)-3-(isothiazol-4-yl)-3,6-diazabicyclo[3.2.1]octan-7-yl)-7-(2,3-dichlorophenyl)-6-fluoro-4-methyl-1H-pyrrolo[3,2-c]quinolin-8-yl)propanenitrile] | ≤ 0.5 ×10⁻⁶ cm/s | † | † |
| Cc1nc2c(F)c(-c3cccc(Cl)c3Cl)c(CCC#N)cc2c2c1cc([C@H]1[C@H]3C[C@H](CN(c4cc(C)n(C)n4)C3)N1C(=O)C1CC1)n2[C@H]1[C@H]2CN[C@@H]1C2 (atropisomer, axis not shown; (Ra)) [Example 105, 3-((Ra)-1-((1R,4R,5S)-2-azabicyclo[2.1.1]hexan-5-yl)-2-((1S,5R,7R)-6-(cyclopropanecarbonyl)-3-(1,5-dimethyl-1H-pyrazol-3-yl)-3,6-diazabicyclo[3.2.1]octan-7-yl)-7-(2,3-dichlorophenyl)-6-fluoro-4-methyl-1H-pyrrolo[3,2-c]quinolin-8-yl)propanenitrile] | ≤ 0.5 ×10⁻⁶ cm/s | † | † |
| Cc1nc2c(F)c(-c3cccc(Cl)c3Cl)c(CCC#N)cc2c2c1cc([C@H]1[C@H]3C[C@H](CN(c4ncc(C5CC5)s4)C3)N1C(=O)C1CC1)n2[C@H]1[C@H]2CN[C@@H]1C2 (atropisomer, axis not shown; (Ra)) [Example 106, 3-((Ra)-1-((1R,4R,5S)-2-azabicyclo[2.1.1]hexan-5-yl)-2-((1S,5R,7R)-6-(cyclopropanecarbonyl)-3-(5-cyclopropylthiazol-2-yl)-3,6-diazabicyclo[3.2.1]octan-7-yl)-7-(2,3-dichlorophenyl)-6-fluoro-4-methyl-1H-pyrrolo[3,2-c]quinolin-8-yl)propanenitrile] | ≤ 0.5 ×10⁻⁶ cm/s | † | † |
| Cc1nc2c(F)c(-c3cccc(Cl)c3Cl)c(CCC#N)cc2c2c1cc([C@H]1[C@H]3C[C@H](CN(C(=O)C4CC4)C3)N1C(=O)C1CC1)n2[C@H]1[C@H]2CN[C@@H]1C2 (atropisomer, axis not shown; (Ra)) [Example 107, 3-((Ra)-1-((1R,4R,5S)-2-Azabicyclo[2.1.1]hexan-5-yl)-2-((1 S,5R,7R)-3,6-di(cyclopropanecarbonyl)-3,6-diazabicyclo[3.2.1]octan-7-yl)-7-(2,3-dichlorophenyl)-6-fluoro-4-methyl-1H-pyrrolo[3,2-c]quinolin-8-yl)propanenitrile] | ≤ 0.5 ×10⁻⁶ cm/s | † | † |
| COC(=O)N1C[C@@H]2C[C@H](C1)N(C(=O)C1CC1)[C@H]2c1cc2c(C)nc3c(F)c(-c4cccc(Cl)c4Cl)c(CCC#N)cc3c2n1[C@H]1[C@H]2CN[C@@H]1C2 (atropisomer, axis not shown; (Ra)) [Example 108, Methyl (1 S,5R,7R)-7-((Ra)-1-((1R,4R,5S)-2-azabicyclo[2.1.1]hexan-5-yl)-8-(2-cyanoethyl)-7-(2,3-dichlorophenyl)-6-fluoro-4-methyl-1H-pyrrolo[3,2-c]quinolin-2-yl)-6-(cyclopropanecarbonyl)-3,6-diazabicyclo[3.2.1]octane-3-carboxylate] | ≤ 0.5 ×10⁻⁶ cm/s | † | † |
| Cc1noc(C)c1S(=O)(=O)N1C[C@@H]2C[C@H](C1)N(C(=O)C1CC1)[C@H]2c1cc2c(C)nc3c(F)c(-c4cccc(Cl)c4Cl)c(CCC#N)cc3c2n1[C@H]1[C@H]2CN[C@@H]1C2 (atropisomer, axis not shown; (Ra)) [Example 110, 3-((Ra)-1-((1R,4R,5S)-2-Azabicyclo[2.1.1]hexan-5-yl)-2-((1 S,5R,7R)-6-(cyclopropanecarbonyl)-3-((3,5-dimethylisoxazol-4-yl)sulfonyl)-3,6-diazabicyclo[3.2.1]octan-7-yl)-7-(2,3-dichlorophenyl)-6-fluoro-4-methyl-1H-pyrrolo[3,2-c]quinolin-8-yl)propanenitrile] | ≤ 0.5 ×10⁻⁶ cm/s | † | † |
